For one test, the target named is T1, GPIIb/IIIa (Homo sapiens, UniProt P05106+P08514).
T1 sequence (P08514 32-887 limits assumed): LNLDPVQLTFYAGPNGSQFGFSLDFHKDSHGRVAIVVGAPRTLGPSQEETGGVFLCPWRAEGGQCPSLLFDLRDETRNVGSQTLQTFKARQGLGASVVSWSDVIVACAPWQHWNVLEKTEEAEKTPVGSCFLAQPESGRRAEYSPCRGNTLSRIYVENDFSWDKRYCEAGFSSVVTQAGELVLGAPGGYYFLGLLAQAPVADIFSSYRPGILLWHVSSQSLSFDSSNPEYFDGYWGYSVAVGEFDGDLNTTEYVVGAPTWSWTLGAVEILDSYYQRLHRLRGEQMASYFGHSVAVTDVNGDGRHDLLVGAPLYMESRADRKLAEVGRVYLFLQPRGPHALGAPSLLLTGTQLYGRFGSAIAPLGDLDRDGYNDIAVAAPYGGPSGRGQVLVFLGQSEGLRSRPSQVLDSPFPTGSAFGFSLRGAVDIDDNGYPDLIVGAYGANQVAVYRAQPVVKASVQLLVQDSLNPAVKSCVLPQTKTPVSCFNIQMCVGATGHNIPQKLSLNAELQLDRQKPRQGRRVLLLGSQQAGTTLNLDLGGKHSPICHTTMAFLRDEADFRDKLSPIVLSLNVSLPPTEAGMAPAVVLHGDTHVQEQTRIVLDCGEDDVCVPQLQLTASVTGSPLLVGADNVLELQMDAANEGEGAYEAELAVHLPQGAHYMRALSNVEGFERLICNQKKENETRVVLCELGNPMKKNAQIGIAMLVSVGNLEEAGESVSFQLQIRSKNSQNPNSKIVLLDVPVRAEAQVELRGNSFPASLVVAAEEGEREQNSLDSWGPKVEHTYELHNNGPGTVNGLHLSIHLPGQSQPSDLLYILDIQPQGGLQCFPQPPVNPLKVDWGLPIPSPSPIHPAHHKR
T1 sequence (P05106 27-788): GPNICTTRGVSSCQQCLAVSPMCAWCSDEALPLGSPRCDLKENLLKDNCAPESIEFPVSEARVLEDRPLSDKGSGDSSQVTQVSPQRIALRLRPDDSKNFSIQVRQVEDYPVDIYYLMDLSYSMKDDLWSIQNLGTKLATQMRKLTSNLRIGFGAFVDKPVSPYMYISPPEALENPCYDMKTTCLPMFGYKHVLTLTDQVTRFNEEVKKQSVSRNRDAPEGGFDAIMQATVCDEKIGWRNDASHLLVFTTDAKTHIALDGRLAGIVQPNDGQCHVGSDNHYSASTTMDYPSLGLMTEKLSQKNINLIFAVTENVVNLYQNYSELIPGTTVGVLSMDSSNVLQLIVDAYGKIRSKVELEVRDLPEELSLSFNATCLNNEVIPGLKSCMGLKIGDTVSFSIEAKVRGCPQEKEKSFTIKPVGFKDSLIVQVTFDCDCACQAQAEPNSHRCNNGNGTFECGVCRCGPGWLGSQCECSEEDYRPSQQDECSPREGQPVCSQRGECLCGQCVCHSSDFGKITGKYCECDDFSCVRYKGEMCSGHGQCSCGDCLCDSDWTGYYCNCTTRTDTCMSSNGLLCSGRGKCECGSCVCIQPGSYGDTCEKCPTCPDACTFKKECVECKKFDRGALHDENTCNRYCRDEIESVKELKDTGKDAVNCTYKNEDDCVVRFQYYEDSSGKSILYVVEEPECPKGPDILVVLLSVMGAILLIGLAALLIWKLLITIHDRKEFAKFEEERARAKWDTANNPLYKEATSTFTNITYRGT
As to the kind of experiment: In vitro solid phase purified glycoprotein IIb/IIIa binding assay (biotinylated fibrinogen). To be noted: for IC50: Table I; for inhibition at 50 µM: read-out: Binding (column Binding IC50), % @ 50 μM. The text has this:
The compounds of the present invention interrupt binding of fibrinogen to platelet glycoprotein IIb/IIIa (GPIIb/IIIa) and thereby inhibit platelet aggregation. […] Because the final, common pathway in normal platelet aggregation is the binding of fibrinogen to activated, exposed GPIIb/IIIa, inhibition of this binding represents a plausible antithrombotic approach. The receptor is activated by stimuli such as ADP, collagen, and thrombin, exposing binding domains to two different peptide regions of fibrinogen: α-chain Arg-Gly-Asp (RGD) and γ-chain 400-411.
IN VITRO SOLID PHASE PURIFIED GLYCOPROTEIN IIB/IIIA BINDING ASSAY.
The plate is covered and incubated overnight at 4° C. The GPIIb/IIa solution is discarded and 150 μl of 5% BSA is added and incubated at RT for 1-3 h. The plate is washed extensively with modified Tyrodes buffer. Biotinylated fibrinogen (25 μl/well) at 2× final concentration is added to the wells that contain the test compounds (25 μl/well) at 2× final concentration. The plate is covered and incubated at RT for 2-4 h. Twenty minutes prior to incubation completion, one drop of Reagent A (Vecta Stain ABC Horse Radish Peroxidase kit, Vector Laboratories, Inc.) and one drop Reagent B are added with mixing to 5 mL modified Tyrodes buffer mix and let stand. The ligand solution is discarded and the plate washed (5×200 μl/well) with modified Tyrodes buffer. Vecta Stain HRP-Biotin-Avidin reagent (50 μl/well, as prepared above) is added and incubated at RT for 15 min. The Vecta Stain solution is discarded and the wells washed (5×200 μl/well) with modified Tyrodes buffer. […] The absorbance is read at 490 nm.

A further test has as its system gel-filtered platelets. Nature of the test: In vitro inhibition of thrombin-induced gel-filtered platelet aggregation assay. It is filed as cell-based. To be noted: *Indicates IC50, read-out: Pl. Aggr. IC50. On the procedure:
IN VITRO INHIBITION OF THROMBIN-INDUCED GEL-FILTERED PLATELET AGGREGATION ASSAY.
The percentage of platelet aggregation is calculated as an increase in light transmission of compound treated platelet concentrate vs. control treated platelet concentrate. Blood is obtained from drug free, normal donors into tubes containing 0.13M sodium citrate. Platelet rich plasma (PRP) is collected by centrifugation of whole blood at 200×g for 10 min at 25° C. The PRP (5 mL) is gel filtered through Sepharose 2B (bed volume 50 mL), and the platelet count is adjusted to 2×10^7platelets per sample. The following constituents are added to a siliconized cuvette: concentrated platelet filtrate and Tyrode's buffer (0.1 4M NaCl, 0.0027M KCl, 0.01 2M NaHCO3, 0.76 mM Na2 HPO4, 0.0055M glucose, 2 mg/mL BSA and 5.0 mM HEPES @ pH 7.4) in an amount equal to 350 μl, 50 μl of 20 mM calcium and 50 μl of the test compound. Aggregation is monitored in a BIODATA aggregometerforthe 3 min following the addition of agonist (thrombin 50 μl of 1 unit/mL).

The next test has as its system platelet aggregation. As to the kind of experiment: In vivo dog study: gamma thrombin- and collagen-induced platelet aggregation. Also on record: species or system mongrel dogs. The note with it: mean ± SEM. On the procedure:
(§1) Adult mongrel dogs of either sex 9-13 kg) were anesthetized with pentobarbital sodium (35 mg/kg, i.v.) and ventilated with room air via an endotracheal tube (12 strokes/min, 25 ml/kg). For arterial pressure determination, the left carotid artery was cannulated with a saline-filledpolyethylene catheter (PE-200) and connected to a Statham pressure transducer (P231D, Oxnard, Calif.). Mean arterial diastolic blood pressure. Heart rate was monitored using a cardiotachometer (Biotach, Gould
(§2) Electronics, Cleveland, Ohio) triggered from a lead 11 electrocardiogram generated by limb leads. A jugular vein was cannulated (PE-200) for drug administration. The left femoral artery and the left femoral vein were cannulated with silicon treated (Sigmacote, Sigma Chemical Co., St. Louis, Mo.), saline filled polyethylene tubing (PE-200) and connected with a 5 cm section of silicon treated tubing (PE-240) to form an extracorporeal arteriovenous shunt (A-V). Shunt patency was monitored using a Doppler flow system (model VF-1, Crystal Biotech Inc., Hopkinton, Mass.) and proximal to the locus of the shunt. All parameters were monitored continuously on a polygraph recorder (Gould TA-4000, Oxnard Calif.) at a paper speed of 10 mm/min.
(§3) On completion of a 15 min post surgical stabilization period, an occlusive thrombus was formed by the introduction of a thrombogenic surface (O braided silk thread, 5 cm in length, Ethicon Inc., Somerville, N.J.) into the shunt. Four consecutive 15 min shunt periods were employed with the first consisting of a vehicle infusion followed by increasing concentrations of Compound 16, SC-47643, saline with DMF or saline with citric acid administered as a bolus followed by an infusion beginning 5 min. before insertion of the thrombogenic surface and continued for an additional 15 min. AT the end of each 15 min shunt period the silk was carefully removed and weighed. A fifth shunt immediately following the total cumulative treatment dose was used to assess patency duration as indicated by time to total occlusion. Thrombus weight was calculated by subtracting the weight of the silk prior to placement from the total weight of the silk on removal from the shunt. Arterial blood was withdrawn prior to the first shunt and after each shunt period for determination of whole blood collagen-induced platelet aggregation, thrombin-induced platelet degranulation (platelet ATP release), prothrombin time and platelet count. Template bleeding time was performed beginning 10 min. into each shunt period.
Whole blood platelet aggregation and ATP release were measured using a lumi-aggregation and ATP release were measured using a lumi-aggregometer (Chrono-log, Havertown, Pa.) by recording the change in impedance (platelet aggregation) and light transmission (ATP-release) through a stirred (1000 rpm) suspension of whole blood maintained at 37 C.
(§4) Compound 16;1+0.03, 3+0.1 and 5+0.3 mg/kg, i.v. (bolus)+mg/kg/hr,i.v. (infusion) was solubilized in saline+DMF (5%) and serially diluted to achieve appropriate concentrations expressed as parent compound.
(§5) All values are expressed as the mean and standard error of the mean. Statistical significance of the change was assessed based on change from baseline suing analysis of variance and Student's t-test. Differences were considered significant when P<0.05.

The next test has as its system occlusive thrombus. As to the kind of experiment: In vivo dog study: thrombus formation in extracorporeal arteriovenous shunt. To be noted: for Thrombus Weight: mean ± SEM. Also noted: species or system mongrel dogs. On the procedure: Compound 16 was tested in the following in vivo dog model to determine its therapeutic efficacy
as §1, §2, §3, §4, §5

Structures are written as SMILES.

By IC50 is commonly meant the point on the concentration scale where inhibition reaches its midpoint.

The compound `CC(C)(C)OC(=O)N[C@@H](CCCCNC(=O)OCc1ccccc1)C(=O)N1CCCC(C(=O)NCCC(=O)OCc2ccccc2)C1` (stereo partly drawn) [Compound 1, Nα-Boc-L-Lys(Cbz)-Nip-Ala-OBn] had an IC50 at GPIIb/IIIa of 20100 nM.
For `CC(C)(C)OC(=O)N[C@@H](CCCCN)C(=O)N1CCCC(C(=O)NCCC(=O)O)C1` (stereo partly drawn) [Compound 2, Nα-Boc-L-Lys-Nip-γ-Ala--OH], the IC50 on GPIIb/IIIa worked out at 740 nM.
As to `CC(C)(C)OC(=O)N[C@H](CCCCN)C(=O)N1CCCC(C(=O)NCCC(=O)O)C1` (stereo partly drawn) [Compound 3, Nα-Boc-D-Lys-Nip-γ-Ala--OH], the IC50 on GPIIb/IIIa was found to be 21 nM; with gel-filtered platelets, 600 nM.
Turning to `NCCCC[C@H](N)C(=O)N1CCCC(C(=O)NCCC(=O)O)C1` (stereo partly drawn) [Compound 4, H-L-Lys-Nip-γ-Ala-OH], at GPIIb/IIIa, the IC50 was 2600 nM.
Turning to `CC(=O)N[C@@H](CCCCN)C(=O)N1CCCC(C(=O)NCC(=O)O)C1` (stereo partly drawn) [Compound 6, Nα-Ac-L-Lys-Nip-Gly-OH], at GPIIb/IIIa, the inhibition at 50 µM amounted to 24%.
On GPIIb/IIIa, `CC(=O)N[C@@H](CCCCN)C(=O)N1CCCC(C(=O)NCCC(=O)O)C1` (stereo partly drawn) [Compound 7, Nα-Ac-L-Lys-Nip-β-Ala-OH] came in with an IC50 of 74 nM.
For the compound `CC(C)(C)OC(=O)N[C@@H](CCCCN)C(=O)N1CCCC(C(=O)NCCCC(=O)O)C1` (stereo partly drawn) [Compound 9, Nα-Boc-L-Lys-Nip-γ-aminobutyric acid], on GPIIb/IIIa, the inhibition at 50 µM is 59%.
Take `NCCCC[C@@H](N)C(=O)N1CCCC(C(=O)NCCC(=O)O)C1` (stereo partly drawn) [Compound 10, H-D-Lys-Nip-β-Ala-OH]: the IC50 at GPIIb/IIIa was found to be 760 nM.
`CC(=O)N[C@H](CCCCN)C(=O)N1CCCC(C(=O)NCCC(=O)O)C1` (stereo partly drawn) [Compound 13, Nα-Ac-D s-Nip-β-Ala-OH]: the IC50 at GPIIb/IIIa is 340 nM.
On to `CC(C)NCCCC[C@H](NC(=O)OC(C)(C)C)C(=O)N1CCCC(C(=O)NCCC(=O)O)C1` (stereo partly drawn) [Compound 15, Nα-Boc-L-Lys(i-Pr)-Nip-β-Ala-OH], for which, on GPIIb/IIIa (read-out: Binding (column Binding IC50), % @ 5 μM), the inhibition at 5 µM amounted to 20%.
As to `CC(C)(C)OC(=O)N[C@H](CCCCN)C(=O)N1CCC[C@@H](C(=O)NCCC(=O)O)C1` [Compound 16, Nα-Boc-D-Lys-R-(-)-Nip-β-Ala-OH], the “Collagen-Induced Plat Agg (% inhib)” value amounted to 14 ± 3 % inhib with platelet aggregation (2-Dose 1 (1+0.03)); 99 ± 1 % inhib in the test on platelet aggregation (3-Dose 2 (3+0.1), *P < 0.05); 100 ± 0 % inhib in the test on platelet aggregation (4-Dose 3 (5+0.3), *P < 0.05); 82 ± 13 % inhib with platelet aggregation (30 min post, *P < 0.05); 57 ± 14 % inhib in the test with platelet aggregation (60 min post, *P < 0.05). The “G-Thrombin-Induced Plat Agg (% inhib)” value was 8 ± 5 % inhib in the test with platelet aggregation (2-Dose 1 (1+0.03)); 34 ± 8 % inhib in the test with platelet aggregation (3-Dose 2 (3+0.1), *P < 0.05); 72 ± 8 % inhib in the test on platelet aggregation (4-Dose 3 (5+0.3), *P < 0.05); 21 ± 8 % inhib in the test with platelet aggregation (30 min post); 11 ± 5 % inhib in the test with platelet aggregation (60 min post). Also, the “Incidence of occlusive thrombus formation (animals per group)” value with occlusive thrombus (Period 2, Dose 1 (1+0.03 mg/kg iv bolus + mg/kg/hr infusion)) is on record as 2/4; in the test with occlusive thrombus (Period 3, Dose 2 (3+0.1)), 1/4; in the test on occlusive thrombus (Period 4, Dose 3 (5+0.3)), 0/4; in the test on occlusive thrombus (Post Treatment, monitored for 60 min), 3/4. In addition, the “Thrombus Weight” value in the test on occlusive thrombus (Shunt 2 - Dose 1 (1+0.03)) was determined as 52 ± 3 mg; in the test on occlusive thrombus (Shunt 3 - Dose 2 (3+0.1), *P < 0.05), 27 ± 1 mg; in the test on occlusive thrombus (Shunt 4 - Dose 3 (5+0.3), *P < 0.05), 19 ± 2 mg.
